Data on one compound can be found in patent US20200376005A1, “SHIP INHIBITION TO COMBAT OBESITY” (THE RESEARCH FOUNDATION FOR THE STATE UNIVERSITY OF NEW YORK, priority 2013, published 2020).

Data set [1] is described as follows: 3AC treatment of adult C57BL6/J mice (DEXA, microCT, serum ELISA). The following applies: vs vehicle, hydrochloride. Format: in vivo. A general note: In an ELISA, binding on a coated surface is turned into a signal by an enzyme label.
A short description of data set [2]: 3AC treatment of aged C57BL/6 mice, fasting blood glucose and insulin. Format: in vivo. The following applies: after 1 month treatment. On the procedure: We noted that mutation of the SHIP1 paralog, SHIP2, also promotes resistance to diet-induced obesity and diabetes^2 We hypothesized then that treatment of adult or aging mice with a pan-SHIP1/2 inhibitor, 3AC^3,4, (SHIPi) might reduce body fat content. This was then tested by pulsatile SHIPi treatment of aged C57BL/6 mice that have begun to accumulate excess body fat and then assessing their body fat content via whole body DEXA imaging. […] This analysis confirmed that small molecule targetting of SHIP1/2 in vivo is a feasible approach to reverse the accumulation of excess body fat and glucose homeostasis during aging.

The next data set deals with MIR cell. As to the kind of experiment: MIR cell induction in treated mice. The following applies: in vivo, mice. On the procedure: [Moto bene: DRV-IV-26=3A5AS].
The solubility of 3AC was assessed by calculating the distribution coefficient (CLogD). This calculation estimates the CLogD for 3AC at 7.17 indicating the molecule is very lipophilic. Thus, we have begun to develop novel 3AC analogs with increased aqueous solubility. One of these compounds, 3A5AS, has a CLogD of 3.33. Lipinski's rules (a common measure of small molecule pharmacokinetics) recommend a ClogD of <5 for in vivo applications.

For data set [3] the following is noted: cited reference 3 of Example 22; cited from earlier work.
Data set [4] can be described thus: 3-point bending test and microCT of femurs of 3AC treated mice. Format: in vivo. On the procedure:
Mouse femurs were cleaned, wrapped in PBS-soaked gauze and frozen at […]. Femurs were rehydrated in a PBS solution at room temperature for 2 hours before testing. We employed a 3-point-bending test to assay the biomechanical properties of femurs treated with the 3AC inhibitor. Femurs were placed into a testing frame (1250 N Load Cell and a Q Test 1/L, MTS Systems Corp, Eden Prairie, Minn.), pre-loaded with 1 N and then loaded at 1 N/mm until failure. Prior to testing femurs were scanned using microCT to assay the geometric properties.

Entries after “also recorded” stand apart in the source; their conditions may differ.

Turning to `CC(C)CCC[C@@H](C)[C@H]1CC[C@H]2[C@@H]3CCC4C[C@H](N)CC[C@]4(C)[C@H]3CC[C@]12C.Cl` (stereo partly drawn) [3AC, 3α-Aminocholestane hydrochloride], the “whole-body BMD” value in data set [1] (DEXA, 25 mg/kg i.p. three times per week, 4, 8 and 16 weeks, 25 mg/kg) is “significantly reduces; also recorded: Significant decrease”. Also, in data set [1] (DEXA, aging mice, 25 mg/kg three times per week, 25 mg/kg), the percent body fat result is given as “significantly reduced; also recorded: Significant decrease”. In addition, in data set [1] (ELISA), the “serum OPG” value is recorded as “significantly increases; also recorded: increased” and the “serum RANKL” value is recorded as “decreased”. In data set [1] (microCT metaphysis, 25 mg/kg i.p. three times per week, 25 mg/kg), the “bone mass (Bv/Tv)” value is “significantly reduces; also recorded: significantly decreased”. For the same compound, in data set [2], the fasting blood glucose result is listed as “significant decrease” and the insulin result is reported as “significant decrease”. Moreover, the “concentration inducing a comparable MIR cell increase” value with MIR cell was 60 µM. Also, the aqueous solubility entry in data set [3] is “poor aqueous solubility”. For the same compound, in data set [4] (3-point bend), the energy to fracture entry is “not observed to be significantly different” and the energy to peak result is on record as “not observed to be significantly different”. In addition, the “decrease in the peak load” value in data set [4] (femurs of 3AC treated mice, 3-point bend, p<0.01) stood at 15.4%. Moreover, in data set [4] (femurs of 3AC treated mice, 3-point bend, p<0.04), the “decrease in the stiffness” value came to 21.6%. Further, in data set [4] (mid-shaft microCT), the “cortical thickness in the femurs” value is given as “significant decreases”.
